Results taken from US7030145B2, “Pyridinyl derivatives for the treatment of depression” (Bristol-Myers Squibb Company, priority 2003, dated 2006).

Tests used:
[1] = biological target: T1, cloned human CRF-R1 receptors (Homo sapiens, UniProt P34998); assay: CRF-R1 receptor binding assay (inhibition of 125I-ovine-CRF binding to cell membranes); parameters: key to activity (Ki class in the CRF assays): a: Ki≦100 nM; b: 100 nM<Ki≦500 nM; c: 500 nM<Ki≦5,000 nM; activity reported in percent inhibition at 10 μM; conditions: membranes of 293EBNA cells transfected with hCRFR1, class d = reported as percent inhibition at 10 μM, figures not given; for Ki: read-out: activity (Ki class in the CRF assays)
T1 construct: the coding region was amplifies by PCR from start to stop codons; expressed in transfected cells; membranes
T1 sequence (P34998 24-415): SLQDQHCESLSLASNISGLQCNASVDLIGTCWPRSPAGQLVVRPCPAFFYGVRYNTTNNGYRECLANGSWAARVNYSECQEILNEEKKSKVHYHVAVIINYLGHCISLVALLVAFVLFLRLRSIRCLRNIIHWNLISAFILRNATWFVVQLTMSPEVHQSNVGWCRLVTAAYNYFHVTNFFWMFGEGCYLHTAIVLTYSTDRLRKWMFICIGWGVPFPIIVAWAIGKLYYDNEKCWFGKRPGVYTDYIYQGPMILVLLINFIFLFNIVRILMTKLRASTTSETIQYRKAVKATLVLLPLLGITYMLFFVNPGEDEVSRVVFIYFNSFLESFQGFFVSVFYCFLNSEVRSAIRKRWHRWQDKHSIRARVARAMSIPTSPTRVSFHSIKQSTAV
From the text: The following is a description of the isolation of cell membranes containing cloned human CRF-R1 receptors for use in a standard binding assay as well as a description of the assay itself.
Messenger RNA was isolated from human hippocampus. […]. The mRNA was reverse transcribed using oligo (dt) 12–18 and the coding region was amplifies by PCR from start to stop codons. The resulting PCR fragment was cloned into the EcoRV site of pGEMV, from whence the insert was reclaimed using XhoI+XbaI and cloned into the XhoI+XbaI sites of vector pm3 as (which contains a CMV promoter, the SV′t′ splice and early poly A signals, an Eptein-Barr viral origin of replication, and a hygromycin selectable marker). The resulting expression vector, called phchCRFR was transfected in 293EBNA cells and cells retaining the episome were selected in the presence of […] hygromycin. Cells surviving 4 weeks of selection in hygromycin were pooled, adapted to growth in suspension and used to generate membranes for the binding assay described below. Individual aliquots containing approximately 1×10^8 of the suspended cells were then centrifuged to form a pellet and frozen. For the binding assay a frozen pellet described above containing 293EBNA cells transfected with hCRFR1 receptors is homogenized in 10 mL of ice cold tissue buffer (50 mM HEPES buffer pH 7.0, containing 10 MM MgCl2, 2 mM EGTA, 1 μg/mL apotinin, 1 μg/mL leupeptin and 1 μg/mL pepstatin). The homoginate is centrifuged at 40,000×g for 12 min and the resulting pellet rehomogenized in 10 mL of tissue buffer. After another centrifugation at 40,000×g for 12 min, the pellet is resuspended to a protein concentration of 360 μg/mL to be used in the assay.
Binding assays are performed in 96 well plates; each well having a 300 μL capacity. To each well is added 50 μL of test drug dilutions (final concentration of drugs range from 10^−10–10^−5 M), 100 μL of ^125I-ovine-CRF (^125I-o-CRF) (final concentration 150 pM) and 150 μL of the cell homoginate described above. Plates are then allowed to incubate at room temperature for 2 hours before filtering the incubate over GF/F filters (presoaked with 0.3% polyethyleneimine) using an appropriate cell harvester. Filters are rinsed 2 times with ice cold assay buffer before removing individual filters and assessing them for radioactivity on a gamma counter.
Curves of the inhibition of ^125I-o-CRF binding to cell membranes at various dilutions of test drug are analyzed by the iterative curve fitting program LIGAND [P. J. Munson and D. Rodbard, Anal. Biochem., 107:220 (1980), which provides Ki values for inhibition which are then used to assess biological activity. […]
Messenger RNA was isolated from human hippocampus. The mRNA was isolated from human hippocampus. The mRNA was reverse transcribed using oligo (dt) 12–18 and the coding region was amplifies by PCR from start to stop codons. The resulting PCR fragment was cloned into the EcoRV site of pGEMV, from whence the insert was reclaimed using XhoI+XbaI and cloned into the XhoI+XbaI sites of vector pm3 as (which contains a CMV promoter, the SV′t′ splice and early poly A signals, an Eptein-Barr viral origin of replication, and a hygromycin selectable marker). The resulting expression vector, called phchCRFR was transfected in 293EBNA cells and cells retaining the episome were selected in the presence of […] hygromycin. Cells surviving 4 weeks of selection in hygromycin were pooled, adapted to growth in suspension and used to generate membranes for the binding assay described below. […]
A frozen pellet described above containing 293EBNA cells transfected with hCRFR1 receptors or the rat frontal cortex tissue dissected from frozen rat brains was prepared as the source of membranes expressing CRF1 receptors used in binding assays. […]

| Structure (SMILES) | activity (Ki class in the CRF assays) [1] | melting point | Ki [1] |
| --- | --- | --- | --- |
| COc1ccc(Nc2nc(C)ccc2S(=O)(=O)c2ccc(OCc3ccccc3OC)cc2)c(C)c1 [Example 1, {3-[4-(2-Methoxybenzyloxy)-benzenesulfonyl]-6-methylpyridin-2-yl}-(4-methoxy-2-methylphenyl)-amine] | d | 70 to 72 °C |  |
| COc1cc(Cl)c(Nc2nc(C)ccc2S(=O)(=O)c2ccc(OCc3ccccc3OC)cc2)cc1F [Example 2, (2-Chloro-5-fluoro-4-methoxyphenyl)-{3-[4-(2-methoxybenzyloxy)-benzenesulfonyl]-6-methylpyridin-2-yl}-amine] | d | 62 to 64 °C |  |
| COc1ccccc1COc1ccc(S(=O)(=O)c2ccc(C)nc2Nc2cc(F)c(N(C)C)cc2Cl)cc1 [Example 3, 2-Chloro-5-fluoro-N^1-{3-[4-(2-methoxybenzyloxy)-benzenesulfonyl]-6-methylpyridin-2-yl}-N^4,N^4-dimethylbenzene-1,4-diamine] | d | 68 to 70 °C |  |
| COc1ccccc1COc1ccc(S(=O)(=O)c2ccc(C)nc2Nc2cc(OC)c(OC)cc2C)cc1 [Example 4, (4,5-Dimethoxy-2-methylphenyl)-{3-[4-(2-methoxybenzyloxy)-benzenesulfonyl]-6-methylpyridin-2-yl}-amine] | d | 62 to 66 °C |  |
| COc1ccccc1COc1ccc(S(=O)(=O)c2ccc(C)nc2Nc2ccc(OC(F)F)cc2Cl)cc1 [Example 5, (2-Chloro-4-difluoromethoxyphenyl)-{3-[4-(2-methoxybenzyloxy)-benzenesulfonyl]-6-methylpyridin-2-yl}-amine] | d | 124 to 125 °C |  |
| COc1ccccc1COc1ccc(S(=O)(=O)c2ccc(C)nc2Nc2cc(OC)c(OC)cc2Cl)cc1 [Example 6, (2-Chloro-4,5-dimethoxyphenyl)-{3-[4-(2-methoxybenzyloxy)-benzenesulfonyl]-6-methylpyridin-2-yl}-amine] | d | 149 to 151 °C |  |
| COc1ccccc1COc1ccc(S(=O)(=O)c2ccc(C)nc2Nc2ccc(S(C)(=O)=O)cc2Cl)cc1 [Example 7, (2-Chloro-4-methanesulfonylphenyl)-{3-[4-(2-methoxybenzyloxy)-benzenesulfonyl]-6-methylpyridin-2-yl}-amine] | d | 100 to 102 °C |  |
| COc1ccccc1COc1ccc(S(=O)(=O)c2ccc(C)nc2Nc2ccc(Cl)cc2C#N)cc1 [Example 8, 5-Chloro-2-{3-[4-(2-methoxybenzyloxy)-benzenesulfonyl]-6-methylpyridin-2-ylamino}-benzonitrile] | d | 178 to 180 °C |  |
| COc1ccc(S(=O)(=O)c2ccc(C)nc2Nc2c(C)cc(C)cc2C)cc1 [Example 9, [3-(4-Methoxybenzenesulfonyl)-6-methylpyridin-2-yl]-(2,4,6-trimethylphenyl)-amine] |  | 165 to 167 °C | 100 to 500 nM |
| Cc1cc(C)c(Nc2nc(C)ccc2S(=O)(=O)c2ccc(O)cc2)c(C)c1 [Example 10, 4-[6-Methyl-2-(2,4,6-trimethylphenylamino)-pyridine-3-sulfonyl]-phenol] |  | 226 to 228 °C | 500 to 5000 nM |
| Cc1cc(C)c(Nc2nc(C)ccc2S(=O)(=O)c2ccc(OCc3ccccc3)cc2)c(C)c1 [Example 11, [3-(4-Benzyloxybenzenesulfonyl)-6-methylpyridin-2-yl]-(2,4,6-trimethylphenyl)-amine] |  | 158 to 160 °C | ≤ 100 nM |
| CCOc1ccc(S(=O)(=O)c2ccc(C)nc2Nc2c(C)cc(C)cc2C)cc1 [Example 12, [3-(4-Ethoxybenzenesulfonyl)-6-methylpyridin-2-yl]-(2,4,6-trimethylphenyl)-amine] | d | 157 to 159 °C |  |
| Cc1cc(C)c(Nc2nc(C)ccc2S(=O)(=O)c2ccc(OCCCC#N)cc2)c(C)c1 [Example 14, 4-{4-[6-Methyl-2-(2,4,6-trimethylphenylamino)-pyridine-3-sulfonyl]-phenoxy}-butyronitrile] |  | 160 to 162 °C | 500 to 5000 nM |
| Cc1cc(C)c(Nc2nc(C)ccc2S(=O)(=O)c2ccc(OCCCCC#N)cc2)c(C)c1 [Example 15, 5-{4-[6-Methyl-2-(2,4,6-trimethylphenylamino)-pyridine-3-sulfonyl]-phenoxy}-pentanenitrile] |  | 115 to 116 °C | 100 to 500 nM |
| Cc1cc(C)c(Nc2nc(C)ccc2S(=O)(=O)c2ccc(OCCCO)cc2)c(C)c1 [Example 16, 3-{4-[6-Methyl-2-(2,4,6-trimethylphenylamino)-pyridine-3-sulfonyl]-phenoxy}-propan-1-ol] |  | 152 to 153 °C | 500 to 5000 nM |
| CCOC(=O)COc1ccc(S(=O)(=O)c2ccc(C)nc2Nc2c(C)cc(C)cc2C)cc1 [Example 17, {4-[6-Methyl-2-(2,4,6-trimethylphenylamino)-pyridine-3-sulfonyl]-phenoxy}-acetic acid ethyl ester] |  | 116 to 118 °C | 500 to 5000 nM |
| CCC(Oc1ccc(S(=O)(=O)c2ccc(C)nc2Nc2c(C)cc(C)cc2C)cc1)C(=O)OC (stereo not drawn) [Example 18, 2-{4-[6-Methyl-2-(2,4,6-trimethylphenylamino)-pyridine-3-sulfonyl]-phenoxy}-butyric acid methyl ester] |  | 111 to 113 °C | 100 to 500 nM |
| Cc1cc(C)c(Nc2nc(C)ccc2S(=O)(=O)c2ccc(OCc3ccccn3)cc2)c(C)c1 [Example 19, {6-Methyl-3-[4-(pyridin-2-ylmethoxy)-benzenesulfonyl]-pyridin-2-yl}-(2,4,6-trimethylphenyl)-amine] |  | 182 to 184 °C | 100 to 500 nM |
| Cc1cc(C)c(Nc2nc(C)ccc2S(=O)(=O)c2ccc(OCc3cc(Cl)nc(Cl)c3)cc2)c(C)c1 [Example 20, {3-[4-(2,6-Dichloropyridin-4-ylmethoxy)-benzenesulfonyl]-6-methylpyridin-2-yl}-(2,4,6-trimethylphenyl)-amine] |  | 192 to 201 °C | 100 to 500 nM |
| Cc1cc(C)c(Nc2nc(C)ccc2S(=O)(=O)c2ccc(OCc3csc(C)n3)cc2)c(C)c1 [Example 21, {6-Methyl-3-[4-(2-methylthiazol-4-ylmethoxy)-benzenesulfonyl]-pyridin-2-yl}-(2,4,6-trimethylphenyl)-amine] |  | 200 to 201 °C | 100 to 500 nM |
| Cc1cc(C)c(Nc2nc(C)ccc2S(=O)(=O)c2ccc(OCc3ccc(F)cc3)cc2)c(C)c1 [Example 22, {3-[4-(4-Fluorobenzyloxy)-benzenesulfonyl]-6-methylpyridin-2-yl}-(2,4,6-trimethylphenyl)-amine] |  | 178 to 180 °C | 100 to 500 nM |
